Data published in US11572590B2, “Methods for evaluating tumor cell spheroids using 3D microfluidic cell culture device” (Dana-Farber Cancer Institute, Inc., priority 2017, dated 2023).
Read-outs that look alike come from different tables or passages of the source.

What was measured:
Experiment in all cases: SelectScreen Kinase Profiling, single point inhibition and IC50 for off-target kinases
Format in all cases: biochemical
off-target kinases [1] = biological target: T1, off-target kinases (Homo sapiens, UniProt Q09013); details: DMPK, LanthaScreen Binding
T1 sequence (Q09013 1-629): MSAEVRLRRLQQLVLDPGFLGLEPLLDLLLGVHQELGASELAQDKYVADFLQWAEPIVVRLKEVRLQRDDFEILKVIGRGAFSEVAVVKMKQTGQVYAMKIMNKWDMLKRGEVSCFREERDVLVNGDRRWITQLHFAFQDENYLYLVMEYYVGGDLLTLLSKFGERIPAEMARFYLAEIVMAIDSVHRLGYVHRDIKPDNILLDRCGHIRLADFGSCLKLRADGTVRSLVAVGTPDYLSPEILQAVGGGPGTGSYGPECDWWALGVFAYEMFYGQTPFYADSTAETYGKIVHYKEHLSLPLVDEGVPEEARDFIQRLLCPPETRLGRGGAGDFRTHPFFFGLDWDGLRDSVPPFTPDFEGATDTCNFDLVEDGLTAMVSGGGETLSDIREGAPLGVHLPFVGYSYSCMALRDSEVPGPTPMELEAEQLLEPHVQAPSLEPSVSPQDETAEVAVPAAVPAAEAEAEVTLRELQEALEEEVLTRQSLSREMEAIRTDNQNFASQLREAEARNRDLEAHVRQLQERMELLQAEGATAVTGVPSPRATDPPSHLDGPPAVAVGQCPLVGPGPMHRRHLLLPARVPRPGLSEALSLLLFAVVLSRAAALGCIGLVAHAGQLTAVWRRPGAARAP

off-target kinases [2] = biological target: off-target kinases (Homo sapiens, UniProt Q00536); details: CDK16 (PCTK1)/cyclin Y, LanthaScreen Binding
off-target kinases [3] = biological target: T2, off-target kinases (Homo sapiens, UniProt O00444); details: PLK4, LanthaScreen Binding
T2 sequence (O00444 1-970): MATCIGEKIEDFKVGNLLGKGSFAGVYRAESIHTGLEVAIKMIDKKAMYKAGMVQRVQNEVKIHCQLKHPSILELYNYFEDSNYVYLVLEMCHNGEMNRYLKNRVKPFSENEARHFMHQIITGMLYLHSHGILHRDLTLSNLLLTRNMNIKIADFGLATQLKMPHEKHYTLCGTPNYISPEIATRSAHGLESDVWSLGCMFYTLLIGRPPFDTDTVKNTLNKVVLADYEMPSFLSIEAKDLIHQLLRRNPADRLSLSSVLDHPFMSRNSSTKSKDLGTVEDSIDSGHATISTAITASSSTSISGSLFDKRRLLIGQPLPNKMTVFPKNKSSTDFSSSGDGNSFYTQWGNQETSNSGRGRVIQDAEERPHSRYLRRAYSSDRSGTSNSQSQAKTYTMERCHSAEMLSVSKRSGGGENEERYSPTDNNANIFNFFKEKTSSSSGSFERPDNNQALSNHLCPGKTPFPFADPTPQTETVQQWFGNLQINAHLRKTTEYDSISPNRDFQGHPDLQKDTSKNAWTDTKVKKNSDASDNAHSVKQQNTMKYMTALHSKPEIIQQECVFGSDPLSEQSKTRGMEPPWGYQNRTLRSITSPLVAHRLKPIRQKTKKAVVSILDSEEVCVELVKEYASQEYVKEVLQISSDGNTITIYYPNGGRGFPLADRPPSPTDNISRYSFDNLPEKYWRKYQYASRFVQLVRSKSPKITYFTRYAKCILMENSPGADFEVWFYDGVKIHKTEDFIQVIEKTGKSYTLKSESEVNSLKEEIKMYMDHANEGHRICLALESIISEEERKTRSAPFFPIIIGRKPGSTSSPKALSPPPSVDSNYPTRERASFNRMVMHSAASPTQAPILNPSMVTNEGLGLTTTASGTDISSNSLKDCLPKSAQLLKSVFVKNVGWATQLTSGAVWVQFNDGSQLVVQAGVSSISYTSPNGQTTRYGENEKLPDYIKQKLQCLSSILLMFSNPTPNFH

off-target kinases [4] = biological target: off-target kinases (Homo sapiens, UniProt P29376); details: LTK (TYK1), ZLYTE, ATP Km app
Chain of off-target kinases (Homo sapiens, UniProt P29376) (P29376 17-864): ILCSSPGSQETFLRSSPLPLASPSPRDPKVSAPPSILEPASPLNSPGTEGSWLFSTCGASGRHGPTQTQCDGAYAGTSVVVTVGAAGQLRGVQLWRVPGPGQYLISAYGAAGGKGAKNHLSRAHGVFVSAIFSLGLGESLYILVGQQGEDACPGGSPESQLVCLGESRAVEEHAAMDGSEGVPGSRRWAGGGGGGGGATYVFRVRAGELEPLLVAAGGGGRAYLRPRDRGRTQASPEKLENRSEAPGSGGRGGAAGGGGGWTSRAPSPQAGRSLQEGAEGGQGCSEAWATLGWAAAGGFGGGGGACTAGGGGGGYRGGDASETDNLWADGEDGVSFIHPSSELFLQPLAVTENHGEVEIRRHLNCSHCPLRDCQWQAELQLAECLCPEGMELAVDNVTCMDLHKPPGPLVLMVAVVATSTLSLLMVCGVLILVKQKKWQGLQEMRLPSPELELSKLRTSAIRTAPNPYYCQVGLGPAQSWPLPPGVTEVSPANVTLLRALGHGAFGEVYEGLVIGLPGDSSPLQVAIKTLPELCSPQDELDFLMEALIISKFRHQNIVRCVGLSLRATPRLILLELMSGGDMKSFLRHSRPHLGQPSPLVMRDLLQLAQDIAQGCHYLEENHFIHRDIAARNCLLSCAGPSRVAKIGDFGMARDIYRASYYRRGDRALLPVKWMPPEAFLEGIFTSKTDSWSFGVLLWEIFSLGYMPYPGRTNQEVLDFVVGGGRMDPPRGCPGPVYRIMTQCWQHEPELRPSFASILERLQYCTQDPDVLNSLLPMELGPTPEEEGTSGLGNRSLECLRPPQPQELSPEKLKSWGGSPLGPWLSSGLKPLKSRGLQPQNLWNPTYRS

Chain of off-target kinases (Homo sapiens, UniProt Q00536) (Q00536 whole entry): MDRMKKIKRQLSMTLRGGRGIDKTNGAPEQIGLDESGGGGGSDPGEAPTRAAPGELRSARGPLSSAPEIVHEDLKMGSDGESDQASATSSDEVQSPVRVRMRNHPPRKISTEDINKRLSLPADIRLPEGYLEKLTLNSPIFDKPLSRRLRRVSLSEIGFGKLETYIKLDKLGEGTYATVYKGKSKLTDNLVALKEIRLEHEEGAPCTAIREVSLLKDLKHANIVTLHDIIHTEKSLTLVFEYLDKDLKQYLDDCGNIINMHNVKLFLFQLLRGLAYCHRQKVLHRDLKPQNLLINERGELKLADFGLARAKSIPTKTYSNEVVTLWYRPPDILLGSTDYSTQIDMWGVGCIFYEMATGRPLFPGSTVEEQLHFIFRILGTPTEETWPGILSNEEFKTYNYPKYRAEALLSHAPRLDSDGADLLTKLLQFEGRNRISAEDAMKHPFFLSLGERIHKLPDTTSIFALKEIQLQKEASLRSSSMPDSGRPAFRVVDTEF

N#Cc1cc(-c2ncnc(Nc3ccc(N4CCN(C5COC5)CC4)cc3)n2)ccc1OC1CCOCC1 [Compound 1, 5-(4-((4-(4-(oxetan-3-yl)piperazin-1-yl)phenyl)amino)-1,3,5-triazin-2-yl)-2-((tetrahydro-2H-pyran-4-yl)oxy)benzonitrile]
inhibition (off-target kinases [1]; read-out: % Inhibition 1): 76% | inhibition (off-target kinases [1]; read-out: % Inhibition 2): 79% | inhibition (off-target kinases [1]; read-out: % Inhibition Avg): 78% | inhibition (off-target kinases [2]; read-out: % Inhibition 1): 70% | inhibition (off-target kinases [2]; read-out: % Inhibition 2): 73% | inhibition (off-target kinases [2]; read-out: % Inhibition Avg): 71% | inhibition (off-target kinases [3]; read-out: % Inhibition 1): 96% | inhibition (off-target kinases [3]; read-out: % Inhibition 2): 95% | inhibition (off-target kinases [3]; read-out: % Inhibition Avg): 96% | inhibition (off-target kinases [4]; read-out: % Inhibition 1): 5% | inhibition (off-target kinases [4]; read-out: % Inhibition 2): 7% | inhibition (off-target kinases [4]; read-out: % Inhibition Avg): 6%
